From publication PMC6399351, “Cationic Intrinsically Disordered Antimicrobial Peptides (CIDAMPs) Represent a New Paradigm of Innate Defense with a Potential for Novel Anti-Infectives” (Scientific Reports, 2019)
In brackets after ≈: the same amount, converted by molar mass. Where two headings read alike, the source gives them in different places. Peptide text beside a SMILES is read from it. * marks the point of attachment. Palmitoyl = CCCCCCCCCCCCCCCC(=O)*

Experiments:
[1] = test system: Staphylococcus aureus ATCC 43300; settings: MRSA; CLSI, Mueller–Hinton broth, 5 × 10^5 CFU/mL, 18 h 37 °C, by CO-ADD
[2] = test system: Burkholderia cepacia ATCC 25416; settings: CFU assay, 10 mM NaP
[3] = test system: Prevotella oralis ATCC 33321; assay: CFU assay of antimicrobial activity; assay type: cell-based; settings: 10 mM NaP
Method: All purified peptides and recombinant proteins were applied using a colony forming unit (CFU) assay in different media. Bacteria were grown to early log-phase in BHI, washed either with 10 mM Na-P, pH 7.4/1% TSB or pH 5.5/1% TSB, or pH 5.5 without TSB or BHI, and adjusted to a concentration of 10^4–10^5 colony forming units (CFU)/ml. For cell number control, 100 µl aliquots were diluted 1:10, 1:100 and 1:1000 and plated in duplicates on BHI agar plates. To 100 µl aliquots of the bacteria, suspended in the respective medium (10 mM Na-P buffer pH 7,0–7,4/ 1% (w/v) TSB; 10 mM Na-P buffer pH 5,5/ 1% (w/v) TSB; 10 mM Na-P buffer pH 7,0–7,4/ 1% (w/v) TSB pH 7,0–7,4/ 0,25% (w/v) glucose; […], respectively), 10 µl of a solution of the peptide or protein (two-fold dilutions, from 300 µg/ml or 150 µg/ml down to 19 ng/ml), dissolved in 0.01% (v/v) acetic acid, were added.
(§1) Then bacteria were incubated for 2 h at ambient temperature, if not otherwise stated. 10 µl of 0.01% (v/v) acetic acid, added to 100 µl aliquots of the bacteria in the respective medium, served as negative control. From each test, 1:10 and 1:100 dilutions were generated and plated as duplicates of 100 µl aliquots on BHI agar plates. After 16 h incubation at 37 °C, CFU were counted using a colony counter (Bio Kobe, Japan) and expressed as mean of the duplicate estimation to achieve a complete dose-response curve. All experiments were performed at serial dilutions in a concentration range of 100 µg/mL −25 ng/mL for recombinant HRNR fragments and 300 or 150 µg/mL–19 ng/mL for synthetic peptides.

[4] = test system: Acinetobacter baumannii ATCC 19606; assay: CO-ADD MIC, broth microdilution (CLSI); assay type: cell-based; settings: Mueller–Hinton broth, 5 × 10^5 CFU/mL, 18 h 37 °C, by CO-ADD
Excerpt: (§2) They were defined as the lowest peptide
(§3) Further details of the screening

[5] = test system: Pseudomonas aeruginosa ATCC 27853; assay: CO-ADD MIC, broth microdilution (CLSI); assay type: cell-based; settings: Mueller–Hinton broth, 5 × 10^5 CFU/mL, 18 h 37 °C, by CO-ADD
Excerpt: as §2, §3

[6] = test system: Clostridium perfringens ATCC 13124; settings: CFU assay, 10 mM NaP
[7] = test system: E. coli ATCC 25922; assay: CO-ADD MIC, broth microdilution (CLSI); assay type: cell-based, Escherichia coli; settings: Mueller–Hinton broth, 5 × 10^5 CFU/mL, 18 h 37 °C, by CO-ADD
Excerpt: as §2, §3

[8] = test system: Klebsiella pneumonia ATCC 700603; settings: MDR strain; CLSI, Mueller–Hinton broth, 5 × 10^5 CFU/mL, 18 h 37 °C, by CO-ADD
[9] = test system: S. aureus ATCC 6538; settings: CFU assay, 10 mM NaP
[10] = test system: Propionibacterium acnes ATCC 6919; assay: CFU assay of antimicrobial activity; assay type: cell-based; settings: 10 mM NaP
Method: (§4) All purified peptides and recombinant proteins were applied using a colony forming unit (CFU) assay in different media. Bacteria were grown to early log-phase in BHI, washed either with 10 mM Na-P, pH 7.4/1% TSB or pH 5.5/1% TSB, or pH 5.5 without TSB or BHI, and adjusted to a concentration of 10^4–10^5 colony forming units (CFU)/ml. For cell number control, 100 µl aliquots were diluted 1:10, 1:100 and 1:1000 and plated in duplicates on BHI agar plates. To 100 µl aliquots of the bacteria, suspended in the respective medium (10 mM Na-P buffer pH 7,0–7,4/ 1% (w/v) TSB; 10 mM Na-P buffer pH 5,5/ 1% (w/v) TSB; 10 mM Na-P buffer pH 7,0–7,4/ 1% (w/v) TSB pH 7,0–7,4/ 0,25% (w/v) glucose; 10 mM Na-P buffer pH 5,5/ 0,25% (w/v) glucose, respectively), 10 µl of a solution of the peptide or protein (two-fold dilutions, from 300 µg/ml or 150 µg/ml down to 19 ng/ml), dissolved in 0.01% (v/v) acetic acid, were added.
as §1

[11] = test system: P. aeruginosa ATCC 10145; settings: CFU assay, 10 mM NaP
[12] = test system: Streptococcus pneumoniae ATCC 33400; assay: CFU assay of antimicrobial activity; assay type: cell-based; settings: 10 mM NaP
Method: as §4, with “[…];” for “10 mM Na-P buffer pH 5,5/ 1% (w/v) TSB;”
as §1

[13] = test system: Streptococcus pyogenes ATCC 12344; assay: CFU assay of antimicrobial activity; assay type: cell-based; settings: 10 mM NaP
Method: as §4, with “[…];” for “10 mM Na-P buffer pH 5,5/ 1% (w/v) TSB;”
as §1

[14] = test system: Cryptococcus neoformans ATCC 208821; assay: CO-ADD MIC, antifungal assay (CLSI); assay type: cell-based; settings: Yeast Nitrogen Base broth, 24 h 35 °C, by CO-ADD
Method: (§5) Fungi strains were cultured for 3 days on Yeast Extract-Peptone Dextrose (YPD) agar at 30 °C. A yeast suspension of 1 × 10^6 to 5 × 10^6 cells/mL (as determined by OD530) was prepared from five colonies. These stock suspensions were diluted with Yeast Nitrogen Base (YNB) broth to a final concentration of 2.5 × 10^3 CFU/mL. […] Plates were covered and incubated at 35 °C for 24 h without shaking.

[15] = test system: Candida albicans ATCC 90028; assay: CO-ADD MIC, antifungal assay (CLSI); assay type: cell-based; settings: Yeast Nitrogen Base broth, 24 h 35 °C, by CO-ADD
Method: as §5

[16] = test system: Staphylococcus epidermidis ATCC 14990; assay: CFU assay of antimicrobial activity; assay type: cell-based; settings: 10 mM NaP
Method: as §4, §1

[17] = test system: Klebsiella pneumoniae ATCC 13883; settings: CFU assay, 10 mM NaP
[18] = test system: E. coli ATCC 11775; assay: CFU assay of antimicrobial activity; assay type: cell-based, Escherichia coli; settings: 10 mM NaP
Method: as §4, §1

[19] = test system: Salmonella typhimurium ATCC 13311; assay: CFU assay of antimicrobial activity; assay type: cell-based; settings: 10 mM NaP
Method: as §4, §1

SMILES | Minimal inhibitory concentration (MIC) [1] [µg/mL] | LD90 ([2]; pH 7.3, 0.25% glucose) [µg/mL] | LD90 ([3]; pH 7.3, 1% TSB) [µg/mL] | Minimal inhibitory concentration (MIC) [4] [µg/mL] | Minimal inhibitory concentration (MIC) [5] [µg/mL] | LD90 ([6]; pH 7.3, 0.25% glucose) [µg/mL] | Minimal inhibitory concentration (MIC) [7] [µg/mL] | Minimal inhibitory concentration (MIC) [8] [µg/mL] | LD90 ([9]; pH 5.5, 0.25% glucose) [µg/mL] | LD90 ([9]; pH 7.3, 1% TSB) [µg/mL] | LD90 ([10]; pH 7.3, 1% TSB) [µg/mL] | LD90 ([12]; pH 7.3, 0.25% glucose) [µg/mL] | LD90 ([13]; pH 7.3, 0.25% glucose) [µg/mL] | Minimal inhibitory concentration (MIC) [14] [µg/mL] | Minimal inhibitory concentration (MIC) [15] [µg/mL] | LD90 ([17]; pH 5.5, 0.25% glucose) [µg/mL] | further results
CCCCCCCCCCCCCCCC(=O)NCC(=O)N[C@@H](CCCNC(=N)N)C(=O)N[C@@H](CCCNC(=N)N)C(=O)NCC(=O)N[C@@H](CO)C(=O)NCC(=O)N[C@@H](CC(C)C)C(=O)NCC(=O)N[C@@H](CCCNC(=N)N)C(=O)N[C@@H](CO)C(=O)N[C@@H](CO)C(=O)N[C@@H](CO)C(=O)N[C@@H](CCCNC(=N)N)C(=O)NCC(=O)N[C@@H](CCC(N)=O)C(=O)N[C@@H](CCCNC(=N)N)C(=O)NCC(=O)N[C@@H](CO)C(=O)NCC(=O)N[C@@H](CO)C(=O)NCC(=O)N[C@@H](CCCNC(=N)N)C(=O)O [Pal-HR 1-18-HR] (Palmitoyl-GRRGSGLGRSSSRGQRGSGSGR-OH) | 8 (≈ 3.31 µM) | 75 | 37.5 | 1 (≈ 0.414 µM) | 16 (≈ 6.63 µM) | 4.7 | 4 (≈ 1.66 µM) | >32 | 0.3 | 1.18 | 1.18 | 9.38 | 0.15 | 1 (≈ 0.414 µM) | >32 |  | LD90 ([2]; pH 7.3, 1% TSB): 75 µg/mL; LD90 ([11]; pH 7.3, 1% TSB): 1.18 µg/mL
CCCCCCCCCCCCCCCC(=O)NCC(=O)N[C@@H](CCCNC(=N)N)C(=O)N[C@@H](Cc1c[nH]cn1)C(=O)NCC(=O)N[C@@H](CO)C(=O)NCC(=O)N[C@@H](CC(C)C)C(=O)NCC(=O)N[C@@H](Cc1c[nH]cn1)C(=O)N[C@@H](CO)C(=O)N[C@@H](CO)C(=O)N[C@@H](CO)C(=O)N[C@@H](Cc1c[nH]cn1)C(=O)NCC(=O)N[C@@H](CCC(N)=O)C(=O)N[C@@H](Cc1c[nH]cn1)C(=O)NCC(=O)N[C@@H](CO)C(=O)NCC(=O)N[C@@H](CO)C(=O)NCC(=O)N[C@@H](CCCNC(=N)N)C(=O)O [Pal-HR 1-18] (Palmitoyl-GRHGSGLGHSSSHGQHGSGSGR-OH) | >32 | 75 | 18.75 | 32 (≈ 13.7 µM) | >32 | 4.7 | >32 | >32 | 1.18 | > 300 | 1.18 | 2.35 | 0.15 | >32 | >32 | 0.3 | LD90 ([3]; pH 6.5, 0.25% glucose): 37.5 µg/mL; LD90 ([6]; pH 5.5, 0.25% glucose): 37.5 µg/mL; LD90 ([6]; pH 7.3, 1% TSB): 18.75 µg/mL; LD90 ([16]; pH 7.3, 1% TSB): > 300 µg/mL; LD90 ([10]; pH 5.5, 0.25% glucose): 0.3 µg/mL; LD90 ([10]; pH 7.3, 0.25% glucose): 0.59 µg/mL; LD90 ([12]; pH 7.3, 1% TSB): 9.38 µg/mL; LD90 ([13]; pH 7.3, 1% TSB): 9.38 µg/mL
CCCCCCCCCCCCCCCC(=O)N[C@@H](CO)C(=O)N[C@@H](Cc1c[nH]cn1)C(=O)N[C@@H](Cc1c[nH]cn1)C(=O)N[C@@H](CCCNC(=N)N)C(=O)N[C@@H](CS)C(=O)N[C@@H](CS)C(=O)N[C@@H](CCCNC(=N)N)C(=O)N[C@@H](CO)C(=O)N[C@@H](Cc1c[nH]cn1)C(=O)N[C@@H](CCCNC(=N)N)C(=O)N[C@@H](CS)C(=O)N[C@@H](CCCNC(=N)N)C(=O)N[C@@H](CCCNC(=N)N)C(=O)O [Pal-LCE-3B56–68] (Palmitoyl-SHHRCCRSHRCRR-OH) | 16 (≈ 8.28 µM) | 4.7 |  | >32 | >32 |  | >32 | >32 | <0.019 |  |  | 0.59 | 0.15 | 0.25 (≈ 0.129 µM) | 1 (≈ 0.517 µM) | 0.15 | LD90 ([18]; pH 5.5, 0.25% glucose): 0.3 µg/mL; LD90 ([18]; pH 7.3, 0.25% glucose): 0.59 µg/mL; LD90 ([2]; pH 5.5, 0.25% glucose): >300 µg/mL; LD90 ([19]; pH 5.5, 0.25% glucose): 0.038 µg/mL; LD90 ([19]; pH 7.3, 0.25% glucose): 1.18 µg/mL; LD90 ([16]; pH 5.5, 0.25% glucose): 0.3 µg/mL; LD90 ([17]; pH 7.3, 0.25% glucose): 2.35 µg/mL; LD90 ([11]; pH 5.5, 0.25% glucose): 0.075 µg/mL; LD90 ([13]; pH 6.0, 0.25% glucose): 0.15 µg/mL
